Data as given in article PMC3128011, “Central nervous system exposure of next generation quinoline methanols is reduced relative to mefloquine after intravenous dosing in mice” (Malaria Journal, 2011).
In brackets after ≈: the same amount, converted by molar mass. Read-outs that look alike come from different tables or passages of the source. One block for each molecule: values may come before it.

Tests used:
[1] = Brain and plasma concentrations after IV dosing in mice (LCMS/MS); free brain level from equilibrium dialysis fu; assay type: in vivo; conditions: male FVB mice, IV 5 mg/kg; for Maximum whole brain concentration: sampled 5 min, 1, 6, 24 h; for Maximum free brain concentration: whole brain concentration x fu from brain homogenate equilibrium dialysis; for remaining at 24 h: mouse, plasma, 24 h relative to the 5 minute time point, read-out: Residual plasma concentration at 24 h (24h % Remaining)
Description: All in vivo studies were conducted in accordance with protocols approved by the Victorian College of Pharmacy, Animal Ethics Committee. Male, six week old FVB mice were obtained from the Animals Resources Center (Perth, Western Australia) and provided with food and water ad libitum. Mice were administered a 50 μL bolus injection of mefloquine, its enantiomers or one of twenty five quinoline methanol compounds by tail vein injection (dosing solution concentration 2.8 mg/ml) for a nominal dose of 5 mg/kg. The compounds were prepared in 5% DMSO in 5% glucose solution buffered to a pH of 3-5 using citrate or acetate as appropriate based on an assessment of the lipophilicity and pKa of the compound. At 5 min, 1 h, 6 h or 24 h post-dosing, mice were anaesthetized with inhaled isoflurane (3%) approximately 3-4 minutes prior to blood and brain harvest. Blood was collected by cardiac puncture from groups of 2-3 mice and the whole brain was removed. The whole brains were placed into preweighed polypropylene vials and snap frozen prior to storage along with the plasma samples at -20°C until analysis. On the day of analysis, the whole brain was homogenized in three parts of aqueous solution containing 0.1 M EDTA and 0.4 g/L KF (inhibitors of hydrolytic enzymes to reduce the potential for ex vivo tissue-mediated degradation of the test compounds). Calibration standards were prepared by spiking blank brain homogenate and blank plasma with the test compound. Both samples and standards were processed by adding acetonitrile (to precipitate proteins) and centrifuged to separate the supernatant for analysis. An aliquot of the supernatant from each brain homogenate and plasma samples were analysed by UPLC/MS/MS on either a Quattro Premier XE, a Quattro Ultima Pt or a Xevo XT Mass Spectrometer (Waters Corporation, USA).
The unbound fraction of each analog in mouse brain homogenate was determined in vitro using equilibrium dialysis according to methodology reported previously. In brief, a 96 well equilibrium dialysis apparatus was used to determine the unbound fraction in brain homogenate for each compound (HT Dialysis LLC, Gales Ferry, CT). Membranes (12-14 kDA cut-off) were conditioned in deionized water for 60 minutes, followed by conditioning in 80:20 deionized water:ethanol for 20 minutes, and then rinsed in artificial cerebrospinal fluid (CSF) before use. Mouse brain was removed from the freezer and allowed to thaw on the day of experiment. Thawed brain tissue was then homogenized with artificial CSF to a final composition of 1:2 brain:artificial CSF using a Covaris S2 (K Biosciences, Hoddesdon, UK). Diluted brain homogenate was then spiked with the test compound (10 ug/g), and 150 μL aliquots (n = 6 replicate determinations) loaded into the 96-well equilibrium dialysis plate. Dialysis vs artificial CSF (150 μL) was carried out for 5 hours in a temperature controlled incubator at ca. 37°C (Barworld Scientific Ltd, UK) using an orbital microplate shaker at 125 revolutions/minute (Barworld scientific Ltd, UK). At the end of the incubation period, aliquots of brain homogenate or artificial CSF were transferred to micronic tubes (Micronic B.V., the Netherlands) and the composition in each tube balanced with control fluid, such that the volume of artificial CSF to brain was the same. Sample extraction was performed by the addition of 400 μL of acetonitrile containing an appropriate internal standard. Samples were allowed to mix for 1 minute and then centrifuged at 3000 rpm in 96-well blocks for 15 minutes (Allegra X12-R, Beckman Coulter, USA). All samples were then analysed by UPLC/MS/MS on a Quattro Premier XE Mass Spectrometer (Waters Corporation, USA). The unbound fraction in brain was determined as the ratio of the peak area in artificial CSF to that in brain, with correction for dilution factor according to eq.1 [14].(1) [drawing 1] […]

[2] = Half-life after oral dosing (data not shown); assay type: in vivo
P. falciparum strain W2 = experiment: Plasmodium falciparum susceptibility assay (labeled hypoxanthine); assay type: cell-based; conditions: for Potency against P. falciparum in words: in vitro; for IC90: Plasmodium falciparum
Description: The in vitro activities of quinoline methanols against P. falciparum strains W2, D6, TM91C235, and TM90C2A were evaluated using the traditional labeled hypoxanthine assay of Desjardins et al as modified by Milhous et al. These four P. falciparum strains were selected since they have various levels of resistance to conventional anti-malarials. W2 is chloroquine resistant and mefloquine sensitive, D6 is chloroquine sensitive but naturally less susceptible to mefloquine, TM91C235 is resistant to mefloquine, chloroquine, and pyrimethamine as is TM90C2A, however this latter parasite is a two pfmdr1 copy strain (pfmdr1 amplification has been associated with clinical mefloquine resistance). Mefloquine is routinely screened in these assays to ensure the validity. Historical values for mefloquine against all the strains are reported elsewhere. The focus of this study was the mefloquine-sensitive strain W2, however values for the other strains for all the compounds are reported in the Supplementary Information.

SMILES: OC(CNCC12CCC(C1)NC2)c1cc(C(F)(F)F)nc2c(C(F)(F)F)cccc12 (centres unmarked) [WR319535]
Maximum whole brain concentration [1]: 145 ng/g
Brain concentrations (free and whole) relative to mefloquine, in words [1]: acceptable
Maximum free brain concentration [1]: 0.45 ng/g
remaining at 24 h [1]: 2.7%
Half-life relative to mefloquine [2]: longer than mefloquine
Potency against P. falciparum in words (P. falciparum strain W2): modest potency

SMILES: OC(CNCCNCc1ccccc1)c1cc(C(F)(F)F)nc2c(C(F)(F)F)cccc12 (centres unmarked) [WR308396]
Maximum whole brain concentration [1]: 1768 ng/g
Maximum free brain concentration [1]: 3.5 ng/g
remaining at 24 h [1]: 4.6%
IC90 (P. falciparum strain W2; W2, read-out: IC90 W2): 0.006 µg/mL (≈ 0.0131 µM)
Potency against P. falciparum in words (P. falciparum strain W2): acceptable potency

SMILES: CCCCNCC(O)c1cc(C(F)(F)F)nc2c(C(F)(F)F)cccc12 (centres unmarked) [WR177000]
Brain concentrations (free and whole) relative to mefloquine, in words [1]: much higher
Potency against P. falciparum in words (P. falciparum strain W2): most active

SMILES: CN(C)CC(O)c1cc(C(F)(F)F)nc2c(C(F)(F)F)cccc12 (centres unmarked) [WR308246]
Brain concentrations (free and whole) relative to mefloquine, in words [1]: much higher
Potency against P. falciparum in words (P. falciparum strain W2): most active

SMILES: OC(CN1CCCCC1)c1cc(C(F)(F)F)nc2c(C(F)(F)F)cccc12 (centres unmarked) [WR308265]
Brain concentrations (free and whole) relative to mefloquine, in words [1]: much higher
Potency against P. falciparum in words (P. falciparum strain W2): most active

Maximum whole brain concentration ([1]; listed as MQ, 5 mg/kg): 1807 ng/g
Maximum free brain concentration ([1]; listed as MQ, 5 mg/kg): 4.9 ng/g
remaining at 24 h [1]: 35%
IC90 (P. falciparum strain W2; mefloquine-sensitive W2 strain of P. falciparum, read-out: IC90 W2): 0.01 µg/mL (≈ 0.0264 µM)
SMILES: OC(c1cc(C(F)(F)F)nc2c(C(F)(F)F)cccc12)C1CCCCN1 (centres unmarked) [Mefloquine, mefloquine]

Maximum whole brain concentration [1]: 1159 ng/g
Maximum free brain concentration [1]: 2.5 ng/g
SMILES: O[C@H](c1cc(C(F)(F)F)nc2c(C(F)(F)F)cccc12)[C@@H]1CCCCN1 (single isomer, unassigned) [(+) mefloquine enantiomer, reference compound]

SMILES: CC(C)NCC(O)c1cc(C(F)(F)F)nc2c(C(F)(F)F)cccc12 (centres unmarked) [WR308257]
Brain concentrations (free and whole) relative to mefloquine, in words [1]: much higher
Potency against P. falciparum in words (P. falciparum strain W2): most active

Maximum whole brain concentration ([1]; 5 mg/kg): 2249 ng/g
Maximum free brain concentration ([1]; 5 mg/kg): 5.2 ng/g
SMILES: OC(c1cc(C(F)(F)F)nc2c(C(F)(F)F)cccc12)C1CCCCN1 (single isomer, unassigned; (-)) [(-) mefloquine enantiomer, reference compound]

SMILES: OC(CNC1CCNC1)c1cc(C(F)(F)F)nc2c(C(F)(F)F)cccc12 (centres unmarked) [WR308781]
Maximum whole brain concentration [1]: 689 ng/g
Maximum free brain concentration [1]: 5.6 ng/g
remaining at 24 h [1]: 3.3%
IC90 (P. falciparum strain W2; W2, read-out: IC90 W2): > 0.5 µg/mL

SMILES: CNCC(O)c1cc(C(F)(F)F)nc2c(C(F)(F)F)cccc12 (centres unmarked) [WR308245]
Brain concentrations (free and whole) relative to mefloquine, in words [1]: much higher
Potency against P. falciparum in words (P. falciparum strain W2): most active

SMILES: CSCCCNCC(O)c1cc(C(F)(F)F)nc2c(C(F)(F)F)cccc12 (centres unmarked) [WR308278]
Brain concentrations (free and whole) relative to mefloquine, in words [1]: much higher
Potency against P. falciparum in words (P. falciparum strain W2): most active

SMILES: CCCCNCCNCC(O)c1cc(C(F)(F)F)nc2c(C(F)(F)F)cccc12 (centres unmarked) [WR318746]
Maximum whole brain concentration [1]: 431 ng/g
Maximum free brain concentration [1]: 3.8 ng/g
remaining at 24 h [1]: 2.4%
IC90 (P. falciparum strain W2; W2, read-out: IC90 W2): 0.069 µg/mL (≈ 0.163 µM)

SMILES: CCC(C)CNCC(O)c1cc(C(F)(F)F)nc2c(C(F)(F)F)cccc12 (centres unmarked) [WR308387]
Brain concentrations (free and whole) relative to mefloquine, in words [1]: much higher
Potency against P. falciparum in words (P. falciparum strain W2): most active

SMILES: COCCNCC(O)c1cc(C(F)(F)F)nc2c(C(F)(F)F)cccc12 (centres unmarked) [WR308412]
Brain concentrations (free and whole) relative to mefloquine, in words [1]: much higher
Potency against P. falciparum in words (P. falciparum strain W2): most active

SMILES: OC(CNC1CCCNC1)c1cc(C(F)(F)F)nc2c(C(F)(F)F)cccc12 (centres unmarked) [WR318744]
Maximum whole brain concentration [1]: 593 ng/g
Maximum free brain concentration [1]: 3.5 ng/g
remaining at 24 h [1]: 17%
IC90 (P. falciparum strain W2; W2, read-out: IC90 W2): > 0.5 µg/mL
